pIC50: −log10 of the molar value.
Legend:
[1] = test system: GABAA receptor complex (TBPS binding); test: TBPS Binding Assay; set-up: species or system Wistar rats; conditions: [35S]TBPS 0.4 nM, GABA 1 μM, rat cerebral cortex membrane, +% inverse agonistic, 0% antagonistic
Description: The TBPS (t-butylbicyclophosphonothionate) binding assay and the preparation of the membrane specimen were done in a similar manner to the method of Biggio, G. et al. [cf. European Journal of Pharmacology, vol.
That is, to the cerebral cortex was added a 50-fold volume of an ice-cooled buffer (a 50 mM Tris-citrate buffer containing 100 mM sodium chloride, pH 7.4) and the mixture was homogenized at 0-4° C. and then centrifuged at 20,000 g for 20 minutes. The pellets thus obtained were once subjected to homogenization in a buffer and centrifugation by the same procedure as above and then kept in freezed state at -80° C. for more than 20 hours. On the test day, the freezed pellets were thawed and then subjected twice to the homogenization-centrifugation procedure as described above.
Subsequently, the filter was moved into a liquid scintillation vial and thereto was added a liquid scintillation cocktail (ACS-II, manufactured by Amersham, USA, 10 ml) and allowed to stand for a fixed period of time. […] Separately, the same procedures were repeated in the presence of Picrotoxin to determine the non-specific binding amount. The non-specific binding amount was deducted from the total binding amount to give the specific binding amount. The binding activity of the test compound was calculated by a variation rate, i.e., a rate of the specific binding amount of the test compound to the specific binding amount in control (using a solvent).

[2] = molecular target: benzodiazepine receptor; test: Benzodiazepine Receptor Binding Assay; conditions: read-out: BZP-receptor Binding IC50; [3H]-diazepam 1.5 nM; rat brain crude synaptosome membrane; 0° C., 20 min

Structure (SMILES)	TBPS binding Variation Rate [1]	pIC50 [2]
Cc1nc(-c2cc3c(CC(C)C)nccc3[nH]c2=O)no1 [Example 3]	12%	8.45
Cc1nc(-c2cc3c(-c4cccc(Cl)c4)nccc3[nH]c2=O)no1 [Example 7]	12%	8.62
CCc1nc(-c2cc3c(CC)nccc3[nH]c2=O)no1 [Example 14]	38%	8.02
CCc1nc(-c2cc3c(C(C)C)nccc3[nH]c2=O)no1 [Example 16]	38%	8.43
CCc1nc(-c2cc3c(C4CC4)nccc3[nH]c2=O)no1 [Example 17]	25%	9.16
CCc1nc(-c2cc3c(CC(C)C)nccc3[nH]c2=O)no1 [Example 20]	-13%	8.56
CCc1nc(-c2cc3c(C4CCC4)nccc3[nH]c2=O)no1 [Example 21]	21%	8.38
CCc1nc(-c2cc3c(C4CCCCC4)nccc3[nH]c2=O)no1 [Example 23]	-23%	8.75
CCc1nc(-c2cc3c(CC4CCCCC4)nccc3[nH]c2=O)no1 [Example 24]	22%	8.35
CCCc1nc(-c2cc3c(C(C)C)nccc3[nH]c2=O)no1 [Example 36]	15%	–
CCCc1nc(-c2cc3c(-c4ccccc4)nccc3[nH]c2=O)no1 [Example 38]	25%	8.88
CC(C)c1nc(-c2cc3c(C(C)C)nccc3[nH]c2=O)no1 [Example 43]	28%	–
CC(C)c1nc(-c2cc3c(-c4ccccc4)nccc3[nH]c2=O)no1 [Example 45]	-9%	9.02
CC(C)c1nc(-c2cc3c(-c4ccc(F)cc4)nccc3[nH]c2=O)no1 [Example 47]	-11%	8.63
CCc1nccc2[nH]c(=O)c(-c3noc(C4CC4)n3)cc12 [Example 48]	18%	8.83
CC(C)c1nccc2[nH]c(=O)c(-c3noc(C4CC4)n3)cc12 [Example 50]	40%	9.06
O=c1[nH]c2ccnc(-c3ccccc3)c2cc1-c1noc(C2CC2)n1 [Example 52]	-11%	9.13
O=c1[nH]c2ccnc(-c3cccc(Cl)c3)c2cc1-c1noc(C2CC2)n1 [Example 55]	-16%	8.78
Cc1ccc(-c2nccc3[nH]c(=O)c(-c4noc(C5CC5)n4)cc23)cc1 [Example 58]	-15%	8.82
Cc1nc(-c2cc3c(-c4ccccc4F)nccc3[nH]c2=O)no1 [Example 87]	32%	8.63
Cc1nc(-c2cc3c(-c4ccco4)nccc3[nH]c2=O)no1 [Example 91]	38%	9.21
Cc1nc(-c2cc3c(-c4cccs4)nccc3[nH]c2=O)no1 [Example 92]	32%	9.12
Cc1nc(-c2cc3c(-c4ccsc4)nccc3[nH]c2=O)no1 [Example 93]	34%	8.76
CCc1nc(-c2cc3c(-c4ccccc4F)nccc3[nH]c2=O)no1 [Example 95]	13%	8.96
CCc1nc(-c2cc3c(-c4ccccc4Cl)nccc3[nH]c2=O)no1 [Example 96]	16%	8.55
CCc1nc(-c2cc3c(-c4cccc5ccccc45)nccc3[nH]c2=O)no1 [Example 100]	-23%	8.88

Structure (SMILES)	TBPS binding Variation Rate [1]	pIC50 [2]
CCc1nc(-c2cc3c(-c4cccnc4)nccc3[nH]c2=O)no1 [Example 106]	20%	8.71
CCc1nc(-c2cc3c(-c4ccncc4)nccc3[nH]c2=O)no1 [Example 107]	17%	8.18
O=c1[nH]c2ccnc(-c3ccsc3)c2cc1-c1noc(C2CC2)n1 [Example 123]	12%	8.95
Cc1noc(-c2cc3c(-c4ccccc4)nccc3[nH]c2=O)n1 [Example 175]	28%	8.92
Cc1noc(-c2cc3c(-c4ccccc4F)nccc3[nH]c2=O)n1 [Example 176]	39%	8.67
Cc1noc(-c2cc3c(-c4cccc(F)c4)nccc3[nH]c2=O)n1 [Example 177]	29%	–
Cc1noc(-c2cc3c(-c4ccc(F)cc4)nccc3[nH]c2=O)n1 [Example 178]	25%	8.64
Cc1noc(-c2cc3c(-c4ccccc4Cl)nccc3[nH]c2=O)n1 [Example 179]	37%	8.33
Cc1noc(-c2cc3c(-c4cccc(Cl)c4)nccc3[nH]c2=O)n1 [Example 180]	13%	8.91
Cc1noc(-c2cc3c(-c4ccc(Cl)cc4)nccc3[nH]c2=O)n1 [Example 181]	13%	–
COc1ccccc1-c1nccc2[nH]c(=O)c(-c3nc(C)no3)cc12 [Example 185]	19%	–
COc1ccc(-c2nccc3[nH]c(=O)c(-c4nc(C)no4)cc23)cc1 [Example 187]	27%	8.19
Cc1noc(-c2cc3c(-c4ccco4)nccc3[nH]c2=O)n1 [Example 188]	34%	8.92
Cc1noc(-c2cc3c(-c4cccs4)nccc3[nH]c2=O)n1 [Example 189]	29%	9.08
Cc1noc(-c2cc3c(-c4ccsc4)nccc3[nH]c2=O)n1 [Example 190]	34%	8.80
CCc1noc(-c2cc3c(C(C)C)nccc3[nH]c2=O)n1 [Example 193]	44%	8.39
CCc1noc(-c2cc3c(C4CC4)nccc3[nH]c2=O)n1 [Example 194]	32%	8.97
CCc1noc(-c2cc3c(CC(C)C)nccc3[nH]c2=O)n1 [Example 196]	-9%	8.34
CCc1noc(-c2cc3c(-c4ccccc4)nccc3[nH]c2=O)n1 [Example 198]	11%	8.99
CCc1noc(-c2cc3c(-c4ccccc4Cl)nccc3[nH]c2=O)n1 [Example 202]	22%	8.68
CCc1noc(-c2cc3c(-c4cccc(Cl)c4)nccc3[nH]c2=O)n1 [Example 203]	17%	8.71
CCc1noc(-c2cc3c(-c4cccc(C)c4)nccc3[nH]c2=O)n1 [Example 206]	-13%	8.94
CCc1noc(-c2cc3c(-c4ccco4)nccc3[nH]c2=O)n1 [Example 211]	24%	9.09
CCc1noc(-c2cc3c(-c4ccsc4)nccc3[nH]c2=O)n1 [Example 212]	27%	8.90
CC(C)c1noc(-c2cc3c(C4CC4)nccc3[nH]c2=O)n1 [Example 224]	-12%	8.45

Source: patent publication US6172079A, “5-substituted-3-oxadiazolyl-1,6-naphthyridin-2(1H)-one derivatives” (Dainippon Pharmaceutical Co., Ltd., priority 1997, dated 2001)
